Data taken from US20260193295A1, “CILAGICIN COMPOUNDS AND METHODS OF USE THEREOF” (priority 2022, published 2026).
Where two headings read alike, the source gives them in different places. Positions of bridges follow the written chain, without caps; N, C: chain ends. Non-standard residues stand in square brackets, D forms with d. Residues, ends and D or L forms follow the SMILES beside them. *: point of attachment. X2 = O=C(c1cc2ccccc2n1Cc1ccccc1)*; X1 = CC[C@H](C)CCCCC(=O)*; X3 = Cc1ccccc1/C=C/C(=O)*; dDab = NCC[C@@H](N)C(=O)O; Dab = NCC[C@H](N)C(=O)O

Columns and labels:
Staphylococcus aureus = type: cell-based
Experimental: (§1) MIC assay were conducted using the protocol recommended by the Clinical and Laboratory Standards Institute.(37) Culture conditions (temperature, medium) are detailed in Table 3. All compounds were dissolved in sterile DMSO (ATCC, USA) to give a concentration of 6.4 mg/mL. Vancomycin hydrochloride was used as positive controls. Tested compounds were serially diluted across 96-well plates using a 2-fold serial dilution in a volume of 50 μL. An overnight culture of an assay strain was diluted 5,000-fold in fresh medium. 50 μL of this dilution was added into each well, giving a final volume of 100 μL in each well. Compounds were assayed at concentrations ranging from 64 μg/mL to 0.06 μg/mL. The top and bottom rows of each plate were filled with 100 μL of media to avoid edge effects. […] For Clostridium difficile plates were statically incubated under anaerobic conditions (Vinyl anaerobic chamber, 37° C., 5% H2, 5% CO2, 90% N2). For Streptococcus pneumoniae plates were statically incubated under aerobic conditions supplemented with 5% C02 (37° C.). All MICs were performed in technical duplicate (n=2) and repeated three independent times (n=3).

Streptococcus pyrogens = type: cell-based
Experimental: as §1

Enterococcus faecium = type: cell-based
Experimental: as §1

Streptococcus agalactiae = type: cell-based
Experimental: as §1

Streptococcus pneumoniae = type: cell-based
Experimental: as §1

[1] = test system: vancomycin-resistant Enterococci clinical isolates; conditions: cited from earlier work
[2] = Enterococci clinical isolate code 781
[3] = Enterococci clinical isolate code 782
[4] = Enterococci clinical isolate code 783
[5] = Enterococci clinical isolate code 784
[6] = Enterococci clinical isolate code 785
[7] = Enterococci clinical isolate code 786
[8] = Enterococci clinical isolate code 787
[9] = Enterococci clinical isolate code 788
[10] = Enterococci clinical isolate code 789
[11] = Enterococci clinical isolate code 790
[12] = Enterococci clinical isolate code 791
[13] = Enterococci clinical isolate code 792
[14] = Enterococci clinical isolate code 793
[15] = Enterococci clinical isolate code 794
[16] = Enterococci clinical isolate code 795
[17] = Enterococci clinical isolate code 796
[18] = Enterococci clinical isolate code 797
[19] = Enterococci clinical isolate code 798
[20] = Enterococci clinical isolate code 799
[21] = Enterococci clinical isolate code 800
[22] = Enterococci clinical isolate code 801
[23] = Enterococci clinical isolate code 802
[24] = Enterococci clinical isolate code 803
[25] = Enterococci clinical isolate code 804
[26] = Enterococci clinical isolate code 805
[27] = Enterococci clinical isolate code 806
[28] = Enterococci clinical isolate code 807
[29] = Enterococci clinical isolate code 808
[30] = Enterococci clinical isolate code 809
[31] = Enterococci clinical isolate code 810

Measured: MIC

CC(C)[C@@H]1NC(=O)[C@H](Cc2ccc(O)cc2)NC(=O)CNC(=O)[C@@H](CC(=O)O)NC(=O)[C@@H](CC(N)=O)NC(=O)CNC(=O)[C@H](CC(=O)O)NC(=O)[C@@H](CCN)NC(=O)[C@@H](NC(=O)[C@@H](CO)NC(=O)c2cc3ccccc3n2Cc2ccccc2)[C@@H](C)OC(=O)[C@H](Cc2ccccc2)NC(=O)[C@H](CCN)NC1=O [Cilagicin L4] (X2-[dS]T[dDab]DG[dN][dD]GYV[Dab]F; ester 2-C)
8 µg/mL: Staphylococcus aureus

CC[C@H](C)CCCCC(=O)N[C@H](CO)C(=O)N[C@@H]1C(=O)N[C@H](CCN)C(=O)N[C@@H](CC(=O)O)C(=O)NCC(=O)N[C@H](CC(N)=O)C(=O)N[C@H](CC(=O)O)C(=O)NCC(=O)N[C@@H](Cc2ccc(O)cc2)C(=O)N[C@@H](C(C)C)C(=O)N[C@@H](CCN)C(=O)N[C@@H](Cc2ccccc2)C(=O)O[C@@H]1C [Cilagicin L5] (X1-[dS]T[dDab]DG[dN][dD]GYV[Dab]F; ester 2-C)
1 µg/mL: Streptococcus pyrogens
4 µg/mL: Streptococcus pneumoniae | Staphylococcus aureus
8 µg/mL: Streptococcus agalactiae
64 µg/mL: Enterococcus faecium

Cc1ccccc1/C=C/C(=O)N[C@H](CO)C(=O)N[C@@H]1C(=O)N[C@H](CCN)C(=O)N[C@@H](CC(=O)O)C(=O)NCC(=O)N[C@H](CC(N)=O)C(=O)N[C@H](CC(=O)O)C(=O)NCC(=O)N[C@@H](Cc2ccc(O)cc2)C(=O)N[C@@H](C(C)C)C(=O)N[C@@H](CCN)C(=O)N[C@@H](Cc2ccccc2)C(=O)O[C@@H]1C [Cilagicin L6] (X3-[dS]T[dDab]DG[dN][dD]GYV[Dab]F; ester 2-C)
32 µg/mL: Streptococcus pneumoniae
4 µg/mL: Streptococcus pyrogens
64 µg/mL: Streptococcus agalactiae | Staphylococcus aureus
>64 µg/mL: Enterococcus faecium

CO[C@H]1/C=C/O[C@@]2(C)Oc3c(C)c(O)c4c(O)c(c(/C=N/N5CCN(C)CC5)c(O)c4c3C2=O)NC(=O)/C(C)=C\C=C\[C@H](C)[C@H](O)[C@@H](C)[C@@H](O)[C@@H](C)[C@H](OC(C)=O)[C@@H]1C [Rifampin]
2 µg/mL: [1]; [6] | [1]; [7] | [1]; [16] | [1]; [20] | [1]; [21] | [1]; [25] | [1]; [26] | [1]; [30] | [1]; [31]
1 µg/mL: [1]; [2] | [1]; [3] | [1]; [12]
4 µg/mL: [1]; [13] | [1]; [14] | [1]; [15] | [1]; [18]
>4 µg/mL: [1]; [4] | [1]; [9] | [1]; [10] | [1]; [11] | [1]; [17] | [1]; [24] | [1]; [27] | [1]; [28] | [1]; [29]
≤0.25 µg/mL: [1]; [5] | [1]; [8] | [1]; [19] | [1]; [23]
0.5 µg/mL: [1]; [22]

CC1(C)S[C@@H]2[C@H](NC(=O)[C@H](N)c3ccccc3)C(=O)N2[C@H]1C(=O)O [Ampicillin]
0.12 µg/mL: [1]; [10]
2 µg/mL: [1]; [6] | [1]; [16] | [1]; [17] | [1]; [29]
64 µg/mL: [1]; [4] | [1]; [11] | [1]; [13] | [1]; [15] | [1]; [23]
1 µg/mL: [1]; [2] | [1]; [3] | [1]; [5] | [1]; [9] | [1]; [12] | [1]; [14] | [1]; [18] | [1]; [19] | [1]; [20] | [1]; [21] | [1]; [22] | [1]; [25] | [1]; [26] | [1]; [31]
32 µg/mL: [1]; [28]
4 µg/mL: [1]; [27]
0.5 µg/mL: [1]; [7] | [1]; [30]
128 µg/mL: [1]; [24]
8 µg/mL: [1]; [8]

CN[C@H](CC(C)C)C(=O)N[C@H]1C(=O)N[C@@H](CC(N)=O)C(=O)N[C@H]2C(=O)N[C@H]3C(=O)N[C@H](C(=O)N[C@H](C(=O)O)c4cc(O)cc(O)c4-c4cc3ccc4O)[C@H](O)c3ccc(c(Cl)c3)Oc3cc2cc(c3O[C@@H]2O[C@H](CO)[C@@H](O)[C@H](O)[C@H]2O[C@H]2C[C@](C)(N)[C@H](O)[C@H](C)O2)Oc2ccc(cc2Cl)[C@H]1O [Vancomycin]
1 µg/mL: [1]; [14] | [1]; [26] | [1]; [31]
8 µg/mL: [1]; [17]
32 µg/mL: [1]; [3] | [1]; [7] | [1]; [16]
0.5 µg/mL: [1]; [12] | [1]; [27]
>64 µg/mL: [1]; [2] | [1]; [8] | [1]; [10] | [1]; [11] | [1]; [13] | [1]; [15] | [1]; [20] | [1]; [23] | [1]; [24] | [1]; [28] | [1]; [30]
2 µg/mL: [1]; [6] | [1]; [9] | [1]; [18] | [1]; [19]
16 µg/mL: [1]; [25]
64 µg/mL: [1]; [4] | [1]; [21]
4 µg/mL: [1]; [5] | [1]; [22] | [1]; [29]

Penicillin
1 µg/mL: [1]; [7] | [1]; [9] | [1]; [19] | [1]; [22] | [1]; [30]
32 µg/mL: [1]; [8]
4 µg/mL: [1]; [6] | [1]; [16] | [1]; [25]
>32 µg/mL: [1]; [4] | [1]; [11] | [1]; [13] | [1]; [15] | [1]; [23] | [1]; [24] | [1]; [28]
8 µg/mL: [1]; [27]
≤0.12 µg/mL: [1]; [10]
2 µg/mL: [1]; [2] | [1]; [3] | [1]; [5] | [1]; [12] | [1]; [14] | [1]; [17] | [1]; [20] | [1]; [21] | [1]; [26] | [1]; [29] | [1]; [31]
0.5 µg/mL: [1]; [18]
